Assay results: PubChem BioAssay AID192 (DTP/NCI, 2004)
Inconclusive results and toxic doses are left out. The calls were made as follows: active = survival T/C of 150% or more; inactive = T/C below 125% in these data.

System: BDF1 mice, B16 melanoma ip, median survival T/C
Experiment: NCI In Vivo Anticancer Drug Screen. Data for tumor model B16 Melanoma (intraperitoneal) in B6D2F1 (BDF1) mice
Conditions: endpoint: median survival time, higher = longer survival
Protocol: The antitumor activity of compounds was measured in mice bearing transplantable tumors. Survival or tumor size were measured and the results are expressed as the measurement made in the treated group (T) divided by the measurement made in the vehicle treated control group (C). The tumor model used in this assay is B16 Melanoma (intraperitoneal) in B6D2F1 (BDF1) mice

[1] = dose: 6.25 mg/kg/injection, schedule: Q01DX009 (ip), vehicle: saline with Tween-80
[2] = dose: 12.5 mg/kg/injection, schedule: Q01DX009 (ip), vehicle: saline with Tween-80
[3] = dose: 25.0 mg/kg/injection, schedule: Q01DX009 (ip), vehicle: saline with Tween-80
[4] = dose: 50.0 mg/kg/injection, schedule: Q01DX009 (ip), vehicle: saline with Tween-80
[5] = dose: 100.0 mg/kg/injection, schedule: Q01DX009 (ip), vehicle: saline with Tween-80
[6] = dose: 25.0 mg/kg/injection, schedule: Q04DX003 (ip), vehicle: saline with Tween-80
[7] = dose: 50.0 mg/kg/injection, schedule: Q04DX003 (ip), vehicle: saline with Tween-80
[8] = dose: 100.0 mg/kg/injection, schedule: Q04DX003 (ip), vehicle: saline with Tween-80
[9] = dose: 100.0 mg/kg/injection, schedule: Q01DX009 (ip), vehicle: Klucel (hydroxypropylcellulose) (HPC)
[10] = dose: 200.0 mg/kg/injection, schedule: Q01DX009 (ip), vehicle: Klucel (hydroxypropylcellulose) (HPC)

Measured: T/C

CC1OC(OCc2ccc3c(c2)C(=O)c2ccccc2C3=O)CC(N)C1O (stereo not given)
inactive: dose: 1.56 mg/kg/injection, schedule: Q01DX009 (ip), vehicle: water 102 % of control | dose: 3.13 mg/kg/injection, schedule: Q01DX009 (ip), vehicle: water 93 % of control | dose: 6.25 mg/kg/injection, schedule: Q01DX009 (ip), vehicle: water 115 % of control | dose: 12.5 mg/kg/injection, schedule: Q01DX009 (ip), vehicle: water 115 % of control | dose: 50.0 mg/kg/injection, schedule: Q01DX009 (ip), vehicle: water 94 % of control

COc1cc2cc3c4cc(OC)c(OC)cc4cc[n+]3c(C)c2cc1OC
inactive: dose: 400.0 mg/kg/injection, schedule: Q01DX009 (ip), vehicle: saline sonified 86 % of control

Cn1cnc([N+](=O)[O-])c1Sc1nc(N)nc2c1ncn2C1OC(CO)C(O)C1O (stereo not given)
inactive: dose: 12.5 mg/kg/injection, schedule: Q01DX009 (ip), vehicle: suspension in saline 91 % of control

CN(C)CCCC1(C#N)c2ccccc2CCc2ccccc21
inactive: dose: 3.12 mg/kg/injection, schedule: Q01DX009 (ip), vehicle: saline 110 % of control | dose: 6.25 mg/kg/injection, schedule: Q01DX009 (ip), vehicle: saline 97 % of control | dose: 12.5 mg/kg/injection, schedule: Q01DX009 (ip), vehicle: saline 100 % of control | dose: 25.0 mg/kg/injection, schedule: Q01DX009 (ip), vehicle: saline 110 % of control

CN(C)CCOc1ccc2c(c1)C/C(=C/c1ncc([N+](=O)[O-])n1C)C2=O
inactive: [1] 109 % of control | [2] 100 % of control | [3] 96 % of control | [4] 99 % of control | [5] 109 % of control

CCN1CSC(=S)N(CC)C1
inactive: [2] 104 % of control | [3] 102 % of control | [6] 89 % of control | [4] 97 % of control | [7] 100 % of control | [5] 100 % of control | [8] 92 % of control

C[N+](C)(C)C.N=C=O.N=C=O.N=C=O.N=C=O.[Co+2]
inactive: dose: 12.5 mg/kg/injection, schedule: Q04DX003 (ip), vehicle: saline with Tween-80 97 % of control | [6] 90 % of control | [7] 92 % of control

CCOC(=O)C(Cc1ccccc1)P(=O)(OCC)OCC (stereo not given)
inactive: [7] 100 % of control | [8] 95 % of control | dose: 200.0 mg/kg/injection, schedule: Q04DX003 (ip), vehicle: saline with Tween-80 90 % of control

C1OC1CN1CCN(CC2CO2)CC1 (stereo not given)
inactive: dose: 8.0 mg/kg/injection, schedule: Q01DX009 (ip), vehicle: saline with Tween-80 121 % of control | dose: 16.0 mg/kg/injection, schedule: Q01DX009 (ip), vehicle: saline with Tween-80 119 % of control

CC(=O)[O][Hg][c]1c(C)c(C)c(C)c(C)c1C
inactive: dose: 2.5 mg/kg/injection, schedule: Q01DX009 (ip), vehicle: Klucel (hydroxypropylcellulose) (HPC) 99 % of control | dose: 5.0 mg/kg/injection, schedule: Q01DX009 (ip), vehicle: Klucel (hydroxypropylcellulose) (HPC) 98 % of control | dose: 10.0 mg/kg/injection, schedule: Q01DX009 (ip), vehicle: Klucel (hydroxypropylcellulose) (HPC) 90 % of control | dose: 12.5 mg/kg/injection, schedule: Q01DX009 (ip), vehicle: Klucel (hydroxypropylcellulose) (HPC) 90 % of control

COc1cc(/C=C/c2nc3ccccc3nc2/C=C/c2cc(OC)c(OC)c(OC)c2)cc(OC)c1OC
inactive: [1] 106 % of control | [2] 97 % of control

CCN(CC)CCNc1ccc(CO)c2sc3ccccc3c(=O)c12
inactive: dose: 0.25 mg/kg/injection, schedule: Q01DX009 (ip), vehicle: saline 100 % of control | dose: 0.5 mg/kg/injection, schedule: Q01DX009 (ip), vehicle: saline 94 % of control | dose: 1.0 mg/kg/injection, schedule: Q01DX009 (ip), vehicle: saline 89 % of control | dose: 2.0 mg/kg/injection, schedule: Q01DX009 (ip), vehicle: saline 100 % of control | dose: 2.4 mg/kg/injection, schedule: Q01DX009 (ip), vehicle: saline with Tween-80 89 % of control | dose: 4.8 mg/kg/injection, schedule: Q01DX009 (ip), vehicle: saline with Tween-80 97 % of control | dose: 9.5 mg/kg/injection, schedule: Q01DX009 (ip), vehicle: saline with Tween-80 105 % of control | dose: 19.0 mg/kg/injection, schedule: Q01DX009 (ip), vehicle: saline with Tween-80 97 % of control | dose: 38.0 mg/kg/injection, schedule: Q01DX009 (ip), vehicle: saline with Tween-80 110 % of control

O=c1c2ccccc2[nH]c(=S)n1C1CCCCC1
inactive: [9] 90 % of control | [10] 90 % of control

CC12CCC(O)CC1CCC1C2CCC2(C)C(c3ccc(=O)oc3)CCC12O (stereo not given)
inactive: dose: 0.31 mg/kg/injection, schedule: Q01DX009 (ip), vehicle: saline with Tween-80 98 % of control | dose: 0.62 mg/kg/injection, schedule: Q01DX009 (ip), vehicle: saline with Tween-80 94 % of control | dose: 1.25 mg/kg/injection, schedule: Q01DX009 (ip), vehicle: saline with Tween-80 99 % of control | dose: 2.5 mg/kg/injection, schedule: Q01DX009 (ip), vehicle: saline with Tween-80 99 % of control

COc1ccc(NC(=O)Nc2ccc(C(C)C)cc2)cc1
inactive: [9] 94 % of control | [10] 94 % of control | dose: 400.0 mg/kg/injection, schedule: Q01DX009 (ip), vehicle: Klucel (hydroxypropylcellulose) (HPC) 97 % of control

CC(=O)Nc1c(Cl)c(Cl)c2c(c1Cl)Cc1cc(Br)ccc1-2
inactive: dose: 1.5 mg/kg/injection, schedule: Q01DX009 (ip), vehicle: saline with Tween-80 94 % of control | dose: 3.0 mg/kg/injection, schedule: Q01DX009 (ip), vehicle: saline with Tween-80 94 % of control | dose: 6.0 mg/kg/injection, schedule: Q01DX009 (ip), vehicle: saline with Tween-80 100 % of control | dose: 12.0 mg/kg/injection, schedule: Q01DX009 (ip), vehicle: saline with Tween-80 92 % of control | [2] 97 % of control

OCCOCCN1CCN(CCCN2c3ccccc3Sc3ccc(C(F)(F)F)cc32)CC1
inactive: dose: 0.8 mg/kg/injection, schedule: Q01DX009 (ip), vehicle: saline 106 % of control | dose: 1.6 mg/kg/injection, schedule: Q01DX009 (ip), vehicle: saline 102 % of control | dose: 3.2 mg/kg/injection, schedule: Q01DX009 (ip), vehicle: saline 102 % of control | dose: 6.4 mg/kg/injection, schedule: Q01DX009 (ip), vehicle: saline 105 % of control | dose: 3.1 micrograms/kg/injection, schedule: Q01DX009 (ip), vehicle: saline 108 % of control | dose: 6.2 micrograms/kg/injection, schedule: Q01DX009 (ip), vehicle: saline 111 % of control | dose: 12.5 micrograms/kg/injection, schedule: Q01DX009 (ip), vehicle: saline 123 % of control | dose: 25.0 micrograms/kg/injection, schedule: Q01DX009 (ip), vehicle: saline 111 % of control | dose: 50.0 micrograms/kg/injection, schedule: Q01DX009 (ip), vehicle: saline 109 % of control | dose: 100.0 micrograms/kg/injection, schedule: Q01DX009 (ip), vehicle: saline 110 % of control | dose: 200.0 micrograms/kg/injection, schedule: Q01DX009 (ip), vehicle: saline 110 % of control | dose: 400.0 micrograms/kg/injection, schedule: Q01DX009 (ip), vehicle: saline 116 % of control

O=C(O)c1ccc(S(=O)(=O)N(Cl)Cl)cc1
inactive: dose: 100.0 mg/kg/injection, schedule: Q01DX009 (ip), vehicle: saline 110 % of control | dose: 200.0 mg/kg/injection, schedule: Q01DX009 (ip), vehicle: saline 113 % of control | dose: 400.0 mg/kg/injection, schedule: Q01DX009 (ip), vehicle: saline 104 % of control
